Test in all cases: NCI-60 cell line screen, 48 h
In assay [1] the test system is MALME-3M melanoma.
Assay [2] concerns MCF7 breast.
The test system of assay [3] is MDA-MB-231 breast.
In assay [4] the test system is OVCAR-5 ovarian.
Assay [5] relates to SK-OV-3 ovarian.
The subject of assay [6] is SNB-19 CNS.
Assay [7] concerns T-47D breast.
Assay [8] relates to UO-31 renal.

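96-well plates; 48 h exposure; 5 concentrations. Endpoints by linear interpolation between flanking doses. Not reached: highest tested concentration assigned. GI50: concentration for 50% inhibition of growth. TGI is the concentration that stops growth completely.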

Results on ten molecules are retold here after PubChem BioAssay (NCI).

With `C=C1CCC2C3(C)COC(c4c(OC)cccc4OC)OC3CCC2(C)C1C/C=C1/C(=O)OCC1O` (stereo unspecified), the GI50 in assay [1] is 8.92 µM; in assay [2] it was 2.53 µM; in assay [3] it was 7.57 µM; in assay [4], 3.39 µM; in assay [5], 5.71 µM; in assay [6], 14.6 µM. The GI50 was 5.43 µM in assay [7] and 2.01 µM in assay [8]. For the same molecule, the TGI came out at 27.7 µM in assay [1]; 12.8 µM in assay [2]; 26.4 µM in assay [3]; 8.63 µM in assay [4]; 20.3 µM in assay [5]; 29.9 µM in assay [6]. Further, the TGI in assay [7] stood at 26.9 µM; in assay [8], 4.33 µM.
For the molecule `COC(=O)c1ccc2c(c1)C(=O)c1c-2n(C)c(=O)c2cc(OC)c(OC)cc12`, the GI50 in assay [1] was more than 50 µM; in assay [2], more than 50 µM; in assay [3] it was 21.2 µM; in assay [4] it was more than 50 µM; in assay [5] it was more than 50 µM; in assay [6], more than 50 µM. Also, the GI50 in assay [7] and in assay [8] was more than 50 µM in each case. Further, the TGI in assay [1], in assay [2], in assay [3], in assay [4], in assay [5] and in assay [6] was more than 50 µM throughout. Besides, the TGI in assay [7] and in assay [8] was more than 50 µM each time.
With `O=C(N=Nc1c(O)[nH]c2ccccc12)c1oc2ccccc2c1CN1CCN(c2ccccc2)CC1`, the GI50 in assay [1] was 0.724 µM; in assay [2], 1.43 µM; in assay [3], 1.45 µM; in assay [4], 2.54 µM; in assay [5], 7.3 µM; in assay [6], 1.96 µM. The GI50 in assay [7] is 1.38 µM; in assay [8], 1.01 µM. Further, the TGI came to 1.7 µM in assay [1]; 5.89 µM in assay [2]; 4.58 µM in assay [3]; 11.6 µM in assay [4]; 15.7 µM in assay [5]; 8.5 µM in assay [6]. The TGI in assay [7] turned out to be 5.41 µM; in assay [8] it was 2.94 µM.
For `CCC(C)[C@H](NC(=O)NC(=O)NC(=O)CI)C(=O)OC` (stereo partly specified), the GI50 in assay [1] is 1.89 µM; in assay [2], 3.02 µM; in assay [3], 13.6 µM; in assay [4], 15 µM; in assay [5], 17.2 µM; in assay [6] it was 15.4 µM. Further, the GI50 in assay [7] is 10 µM; in assay [8], 1.73 µM. In addition, the TGI in assay [1] was determined as 4 µM; in assay [2], 12.9 µM; in assay [3] it was 30.7 µM; in assay [4], 32.3 µM; in assay [5] it was 31.4 µM; in assay [6], 31.6 µM. Besides, the TGI is 34.8 µM in assay [7] and 3.28 µM in assay [8].
As for `Nc1nc2c(nnn2C2OC(CO)C(O)C2O)c(=O)[nH]1` (stereo unspecified), the GI50 in assay [1] is 4.62 µM; in assay [2] it was 1.42 µM; in assay [3], 4.48 µM; in assay [4] it was 13.3 µM; in assay [5], 0.33 µM; in assay [6] it was 7.33 µM. The GI50 in assay [7] was 2.87 µM; in assay [8], 1.71 µM. For the same molecule, the TGI in assay [1] was more than 100 µM; in assay [2], more than 100 µM; in assay [3] it was more than 100 µM; in assay [4], more than 100 µM; in assay [5] it was more than 23.9 µM; in assay [6] it was more than 100 µM. Besides, the TGI in assay [7] and in assay [8] was more than 100 µM each time.
For the molecule `CC(C)(CCN=C(N)Nc1ccccn1)c1ccc(C(F)(F)F)cc1`, the GI50 in assay [1] was 14.3 µM; in assay [2], 12.2 µM; in assay [3] it was 14.9 µM; in assay [4], 15.8 µM; in assay [5], 15.8 µM; in assay [6], 16.9 µM. Further, the GI50 was 11.1 µM in assay [7] and 10.7 µM in assay [8]. In addition, the TGI in assay [1] stood at 29.6 µM; in assay [2] it was 27.4 µM; in assay [3], 29.8 µM; in assay [4], 30.7 µM; in assay [5], 30.8 µM; in assay [6], 33.1 µM. The figures for the TGI in assay [7] and in assay [8] were 28.5 µM and 22.7 µM, respectively.
Regarding `CCCCCc1cc[n+](CC(=O)c2ccc([N+](=O)[O-])cc2)cc1`, the GI50 in assay [1] was 2.15 µM; in assay [2], 3.37 µM; in assay [3] it was 6.46 µM; in assay [4] it was 22 µM; in assay [5], 13.1 µM; in assay [6] it was 8.01 µM. Also, the GI50 is 6.02 µM in assay [7] and 4.61 µM in assay [8]. Besides, the TGI in assay [1] was 8 µM; in assay [2], 13.4 µM; in assay [3], 35.7 µM; in assay [4], 97.9 µM; in assay [5], 46.3 µM; in assay [6] it was more than 100 µM. In addition, the TGI came out at 28.2 µM in assay [7] and 43.6 µM in assay [8].
As for `c1ccc(CN2CCC3(CC2)SSC2(CCN(Cc4ccccc4)CC2)SS3)cc1`, the TGI in assay [1], in assay [2], in assay [3], in assay [4], in assay [5] and in assay [6] was more than 100 µM in each case. Moreover, the TGI in assay [7] and in assay [8] was more than 100 µM each time.
For the molecule `COc1cc2oc(-c3ccc(O)cc3O)c(CC=C(C)C)c(=O)c2c(O)c1/C=C/C(C)C`, the TGI in assay [1] turned out to be 14.2 µM; in assay [2] it was 7.56 µM; in assay [3], 6.17 µM; in assay [4], 18.7 µM; in assay [5], 20.6 µM; in assay [6], 9.42 µM. Also, the TGI came out at 23.4 µM in assay [7] and 8.08 µM in assay [8].
Take `COc1ccc2c(c1)C1OCCNC1CC2` (stereo unspecified): the TGI in assay [1], in assay [2], in assay [3], in assay [4], in assay [5] and in assay [6] was more than 100 µM in each case. In addition, the TGI in assay [7] and in assay [8] was more than 100 µM throughout.
